{"source": "patent US20200078404A1", "about": "“COMBINATION OF A CELL THERAPY AND AN IMMUNOMODULATORY COMPOUND” (Juno Therapeutics, Inc., priority 2017, published 2020)", "format_in_all_cases": "cell-based, human", "key": {"anti-BCMA CAR T cells": {"tested_on": "anti-BCMA CAR T cells", "experiment": "Cytokine production on BCMA/PD-L1 conjugated beads", "conditions": "1 μM lenalidomide, 24 hours", "protocol": "In another study, to explore whether the lenalidomide-induced potentiation of CAR T activation and cytokine production could override PD-L1-mediated inhibition, cells were cultured in the presence of BCMA beads generated as described in Example 9, with or without additional conjugation of human recombinant PD-L1-Fc. […] Cytokine production was measured in the supernatant."}, "[1]": {"tested_on": "anti-CD19 CAR-expressing T cells", "experiment": "Serial stimulation with K562.CD19: expansion (cell doublings)", "conditions": "for cell doublings: 1000 nM lenalidomide", "from_the_text": "Every 3-4 days (start of each new round), the cells were counted."}, "OPM-2 target cells": {"tested_on": "OPM-2 target cells", "experiment": "Cytolytic activity of anti-BCMA CAR T cells co-cultured with OPM-2 target cells with or without lenalidomide", "protocol": "[…]. The OPM-2 cells were labeled with NucLight Red (NLR) to permit tracking of target cells by microscopy substantially as described above. […] […].\n[…]. Cytolytic activity was measured by loss of red fluorescent cells. […]."}, "anti-BCMA CAR+ T cells": {"tested_on": "anti-BCMA CAR+ T cells", "experiment": "3-D reconstructed bone marrow (rBone) myeloma model with RPMI-8226", "conditions": "1.0 μM lenalidomide", "from_the_text": "To assess cell function in the context of a three-dimensional (3-D) human BCMA-expressing tissue microenvironment, a reconstructed bone marrow (rBone™) (z[…], San Jose, Calif.) was embedded with BCMA-expressing RPMI-8226.\nAfter 2 or 7 days, cells were isolated and assessed by flow cytometry for surface expression of CD3, CD25, CD4, and CD8."}, "anti-CD19 CAR+ T cells": {"tested_on": "anti-CD19 CAR+ T cells", "experiment": "CD25 and PD-1 surface expression of anti-CD19 CAR+ T cells incubated with K562-CD19 cells", "protocol": "After 120 hours of culture, cells were isolated and assessed by flow cytometry for surface expression of CD25 or PD-1 in CD4+ or CD8+ T cell subsets."}}, "data": [{"smiles": "Nc1cccc2c1CN(C1CCC(=O)NC1=O)C2=O", "note": "(centres unmarked) [lenalidomide, 3-(4-amino-1-oxo-1,3-dihydro-2H-isoindol-2-yl)piperidine-2,6-dione]", "values": [{"measurement": "secreted cytokine levels (IFN-γ, IL-2, TNF-α)", "setting": "anti-BCMA CAR T cells", "value": "potentiated secreted cytokine levels"}, {"measurement": "CAR+ T cell counts", "setting": "[1]; 100 nM lenalidomide", "value": "increased CAR+ T cell counts for two out of three donors"}, {"measurement": "cell doublings", "setting": "[1]; 2.5:1 E:T ratio, later rounds", "value": "lower cell doublings were only observed in two of the donors"}, {"measurement": "cell doublings", "setting": "[1]; 10:1 E:T ratio, after 3-4 rounds, all donors", "value": "decreased cell doublings"}, {"measurement": "cytolytic activity of anti-BCMA CAR+ T cells", "setting": "OPM-2 target cells; 0.01-10 μM lenalidomide, E:T 1:1, 7 days, four donors", "value": "enhance cytolytic activity of the anti-BCMA CAR+ T cells against OPM-2 target cells, in a dose-dependent manner"}, {"measurement": "antigen-specific anti-BCMA CAR-T cytolytic activity", "setting": "OPM-2 target cells; healthy donor and multiple myeloma patient, E:T 0.3:1, 6 to 7 days", "value": "increased by lenalidomide in a concentration-dependent manner"}, {"measurement": "anti-BCMA CAR T cytolytic activity", "setting": "OPM-2 target cells; increased concentrations of lenalidomide, all donors", "value": "Increased anti-BCMA CAR T cytolytic activity against OPM-2 target cells"}, {"measurement": "CD25+ expression in CD4+ and CD8+ T cell populations", "setting": "anti-BCMA CAR+ T cells", "value": "increase in CD25+ expression"}, {"measurement": "total number of CD3+ cells", "setting": "anti-BCMA CAR+ T cells; day 7", "value": "increase in total number of CD3+ cells"}, {"measurement": "CD25 expression in CD4+ and CD8+ T cells", "setting": "anti-CD19 CAR+ T cells; 1600 nM lenalidomide, E:T 2.5:1, 120 hours", "value": "higher levels of CD25 expression"}, {"measurement": "surface expression of PD-1 in CD4+ or CD8+ T cells", "setting": "anti-CD19 CAR+ T cells; up to 1600 nM lenalidomide, 120 hours", "value": "No difference in surface expression of PD-1"}]}]}
